pIC50: −log10 of the molar value. Where two headings read alike, the source gives them in different places.
Target: T1, PPME (Homo sapiens, UniProt Q9Y570)
T1 construct: made in house; host or cells: E. coli BL21(DE3)
T1 sequence (Q9Y570 1-386): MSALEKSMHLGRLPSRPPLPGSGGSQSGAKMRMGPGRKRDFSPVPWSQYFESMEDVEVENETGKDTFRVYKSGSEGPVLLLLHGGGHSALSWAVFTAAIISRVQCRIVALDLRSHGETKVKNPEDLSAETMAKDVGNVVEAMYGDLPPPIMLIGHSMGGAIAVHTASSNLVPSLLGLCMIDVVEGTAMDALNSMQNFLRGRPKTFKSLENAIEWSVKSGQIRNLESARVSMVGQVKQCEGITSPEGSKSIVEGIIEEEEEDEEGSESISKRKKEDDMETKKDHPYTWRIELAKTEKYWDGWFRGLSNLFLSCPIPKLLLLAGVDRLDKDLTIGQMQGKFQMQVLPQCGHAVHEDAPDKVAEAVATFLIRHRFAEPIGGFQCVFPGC
Assay: PP2A methylesterase (PPME) inhibition, filter paper method
Format: biochemical
Protocol: This example provides a method by which the rate of demethylation of methyl PP2A can be determined. For the composition of ^3H-labeled methyl-PP2A, 100 μl reaction mixtures consisting of purified PP2A AC dimers (prepared as described in Example 3), purified PPMT (prepared as described in Example 1), 50 mM MOPS buffer pH 7.2, 5 mM DTT, 1 mM EDTA, 1 mg/ml BSA and 10 μl ^3H-SAM were incubated at 37° C. for 30 min and loaded onto a desalting column pre-equilibrated in 50 mM MOPS-Na pH 7.2, 1 mM DTT, 1 mM EDTA, 200 mM NaCl and 5% glycerol. The sample was eluted with the same buffer, 50 μl fractions were collected, and each aliquot analyzed by scintillation counting. Fractions containing ^3H-methyl PP2A were collected and stored at 4° C.
The following assay (see Lee, J. et al., Proc. Nat'l Acad. Sci. U.S.A. 93(12):[…] (1996)) is referred to subsequently as the “filter paper method”. The test compound was incubated with purified PPME (prepared as described in Example 2) and purified ^3H-methyl-labeled PP2A (the preparation of which is described in the preceding paragraph) in Buffer C (50 mM MOPS, 1 mM EDTA, 1 mM DTT buffer at pH 7.2, as in Example 3). After incubation at 37° C. for a fixed time (typically 10 minutes), the reaction mixture was spotted onto a 1 cm^2 piece of Whatman 3 mM filter paper. The filter paper was immediately dipped in 10% ice-cold TCA, and then kept on ice in a plastic tray. After all reactions were run, the filter papers were washed at 4° C. with stirring in a large excess of 10% TCA, similarly washed twice at 4° C. with 100% methanol, and then vacuum dried at 45° C. for 1 hr to remove the ^3H-methanol produced by PP2A demethylation. The dried filter papers then were assayed for radioactivity by submerging them in scintillation fluid and performing scintillation counting. This procedure is easily adapted to a 96-well format to allow high-throughput screening (described below).
As used herein to refer to assay results, the term “inhibition activity” refers to the following relationship: Inhibition activity=1−(amount of methyl-PP2A carboxyl demethylated with inhibitor)/(amount of methyl-PP2A carboxyl […] without inhibitor).

[1] = PPME at 85 nM, IC50 higher than the value tested, read-out: IC50

SMILES | pIC50 [1] | other results
COc1cc(C=CC(=O)O)ccc1O [HMCA, 4-Hydroxy-3-methoxycinnamic acid] | < 3.00 | 
O=C(O)[C@]1(O)C[C@@H](O)[C@@H](O)[C@H](O)C1 [QA, D(−)-Quinic acid] | < 2.00 | 
COc1cc(/C=C/C(=O)CC(=O)/C=C/c2ccc(O)c(OC)c2)ccc1O [CCM-L, Curcumin] |  | pIC50 (PPME at 85 nM, read-out: IC50): 3.11
O=C(O)/C=C/c1ccc(O)c(O)c1 [DHCA, 3,4-Dihdroxycinnamic acid] | < 3.00 | 
Cn1c(=O)c2c(ncn2C)n(C)c1=O [caffeine] |  | pIC50 (read-out: concentration required for 50% inhibition of PPME): < 3.36
O=C(/C=C/c1ccc(O)c(O)c1)O[C@@H]1C[C@](O)(C(=O)O)C[C@@H](O)[C@H]1O [CGA, Chlorogenic acid] | < 3.00 | 
Cc1c(C)c2c(c(C)c1O)CCC(C)(CCCC(C)CCCC(C)CCCC(C)C)O2 (racemic) [#12-1, DL-α-tocopherol] |  | pIC50 (PPME at 85 nM, read-out: IC50): 4.46
